Measured values from US9179678B2, “Substituted [1,2,4]triazoles and substituted tetrazoles as herbicides” (SYNGENTA LIMITED, priority 2012, dated 2015).

Assays:
Assay type in all cases: in vivo
[1] = tested on: Alopecurus myosuroides (ALOMY); experiment: Post-emergence glasshouse herbicide test; conditions: POST Application, 1000 g/h, after 13 days
Method in brief: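 Alopecurus myosuroides seeds were sown in pots of standard soil and grown for 8 days in a glasshouse at 24/16° C. day/night, 14 hours light and 65% humidity. The plants were then sprayed post-emergence with an aqueous solution made from the active ingredient in acetone/water (50:50) containing 0.5% Tween 20. Percentage plant damage was scored 13 days later.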

[2] = tested on: Amaranthus retoflexus (AMARE); experiment: Post-emergence glasshouse herbicide test; conditions: POST Application, 1000 g/h, after 13 days
[3] = tested on: Echinochloa crus-galli (ECHCG); experiment: Post-emergence glasshouse herbicide test; conditions: POST Application, 1000 g/h, after 13 days
[4] = tested on: Ipomoea hederacea (IPOHE); experiment: Post-emergence glasshouse herbicide test; conditions: POST Application, 1000 g/h, after 13 days
Solanum nigrum (SOLNI) [5] = experiment: Post-emergence glasshouse herbicide test; conditions: POST Application, 1000 g/h, after 13 days
Method in brief: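 Solanum nigrum seeds were sown in pots of standard soil and grown for 8 days in a glasshouse at 24/16° C. day/night, 14 hours light and 65% humidity. Plants were then sprayed post-emergence with the active ingredient formulated in acetone/water (50:50) containing 0.5% Tween 20. They were grown on under the same conditions with twice-daily watering, and percentage plant damage was scored after 13 days.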

Setaria faberi (SETFA) [6] = experiment: Post-emergence glasshouse herbicide test; conditions: POST Application, 1000 g/h, after 13 days
Method in brief: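 Setaria faberi seeds were sown in standard soil in pots and grown for 8 days in a glasshouse at 24/16° C. day/night, 14 hours light and 65% humidity. Plants were then sprayed post-emergence with the active ingredient in acetone/water (50:50) containing 0.5% Tween 20, regrown under the same conditions with twice-daily watering, and scored for percentage damage after 13 days.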

[7] = tested on: Alopecurus myosuroides (ALOMY); experiment: Pre-emergence glasshouse herbicide test; conditions: PRE Application, 1000 g/h, after 13 days
Method in brief: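 Alopecurus myosuroides seeds were sown in standard soil in pots and kept one day in a glasshouse at 24/16° C. day/night, 14 hours light and 65% humidity. The soil was then sprayed pre-emergence with the active ingredient in acetone/water (50:50) containing 0.5% Tween 20. Plants grew on, watered twice daily, and percentage damage was scored 13 days later.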

[8] = tested on: Amaranthus retoflexus (AMARE); experiment: Pre-emergence glasshouse herbicide test; conditions: PRE Application, 1000 g/h, after 13 days
[9] = tested on: Echinochloa crus-galli (ECHCG); experiment: Pre-emergence glasshouse herbicide test; conditions: PRE Application, 1000 g/h, after 13 days
[10] = tested on: Ipomoea hederacea (IPOHE); experiment: Pre-emergence glasshouse herbicide test; conditions: PRE Application, 1000 g/h, after 13 days
Setaria faberi (SETFA) [11] = experiment: Pre-emergence glasshouse herbicide test; conditions: PRE Application, 1000 g/h, after 13 days
Solanum nigrum (SOLNI) [12] = experiment: Pre-emergence glasshouse herbicide test; conditions: PRE Application, 1000 g/h, after 13 days

Row | Structure (SMILES) | percentage damage caused to the plant, ALOMY [1] | percentage damage caused to the plant, AMARE [2] | percentage damage caused to the plant, ECHCG [3] | percentage damage caused to the plant, IPOHE [4] | percentage damage caused to the plant, SOLNI (Solanum nigrum (SOLNI) [5]) | percentage damage caused to the plant, SETFA (Setaria faberi (SETFA) [6]) | percentage damage caused to the plant, ALOMY [7] | percentage damage caused to the plant, AMARE [8] | percentage damage caused to the plant, ECHCG [9] | percentage damage caused to the plant, IPOHE [10] | percentage damage caused to the plant, SETFA (Setaria faberi (SETFA) [11]) | percentage damage caused to the plant, SOLNI (Solanum nigrum (SOLNI) [12])
1 | Cn1nnnc1NC(=O)c1nc2ccccc2n(-c2ccc(Cl)c(C(F)(F)F)c2)c1=O [Compound 5.037] | 4 (4=60-79%) | 5 (5=80-100%) | 5 (5=80-100%) | 5 (5=80-100%) | 5 (5=80-100%) | 5 (5=80-100%) | 4 (4=60-79%) | 5 (5=80-100%) | 2 (2=20-39%) | 5 (5=80-100%) | 5 (5=80-100%) | 5 (5=80-100%)
2 | Cc1cccc(-n2c(=O)c(C(=O)Nc3ncnn3C)nc3ccccc32)n1 [Compound 5.038] | 5 (5=80-100%) | 5 (5=80-100%) | 2 (2=20-39%) | 5 (5=80-100%) | 5 (5=80-100%) | 5 (5=80-100%) | 4 (4=60-79%) | 5 (5=80-100%) | 1 (1=0-19%) | 3 (3=40-59%) | 4 (4=60-79%) | 5 (5=80-100%)
3 | COc1ccc(-n2c(=O)c(C(=O)Nc3nnnn3C)nc3ccccc32)cc1Cl [Compound 5.039] | 1 (1=0-19%) | 5 (5=80-100%) | 3 (3=40-59%) | 5 (5=80-100%) | 5 (5=80-100%) | 1 (1=0-19%) | 1 (1=0-19%) | 5 (5=80-100%) | 3 (3=40-59%) | 2 (2=20-39%) | 2 (2=20-39%) | 5 (5=80-100%)
4 | Cn1nnnc1NC(=O)c1nc2ccccc2n(-c2ccc(C(F)(F)F)c(Cl)c2)c1=O [Compound 5.040] | 2 (2=20-39%) | 5 (5=80-100%) | 2 (2=20-39%) | 5 (5=80-100%) | 5 (5=80-100%) | 2 (2=20-39%) | 1 (1=0-19%) | 5 (5=80-100%) | 1 (1=0-19%) | 3 (3=40-59%) | 1 (1=0-19%) | 5 (5=80-100%)
5 | Cn1ncnc1NC(=O)c1nc2ccccc2n(-c2ccccc2)c1=O [Compound 5.041] | 2 (2=20-39%) | 5 (5=80-100%) | 1 (1=0-19%) | 5 (5=80-100%) | 5 (5=80-100%) | 1 (1=0-19%) | 1 (1=0-19%) | 5 (5=80-100%) | 1 (1=0-19%) | 2 (2=20-39%) | 1 (1=0-19%) | 5 (5=80-100%)
6 | Cn1nnnc1NC(=O)c1nc2ccccc2n(-c2ccc(I)cc2)c1=O [Compound 5.042] | 2 (2=20-39%) | 5 (5=80-100%) | 3 (3=40-59%) | 5 (5=80-100%) | 5 (5=80-100%) | 5 (5=80-100%) | 2 (2=20-39%) | 5 (5=80-100%) | 3 (3=40-59%) | 5 (5=80-100%) | 2 (2=20-39%) | 5 (5=80-100%)
